# Tested on: MV-4-11 cells
# Test: Gene expression microarray analysis (Affymetrix PrimeView) and GSEA
# Format: cell-based, human
# Set-up: RFU PODN (11730768_x_at) / Fold change /veh PODN (11730768_x_at) / RFU LINC00158 (11744669_a_at) / Fold change /veh LINC00158 (11744669_a_at) / RFU DUSP10 (11751237_a_at) / Fold change /veh DUSP10 (11751237_a_at) / RFU ID3 (11757404_x_at) / Fold change /veh ID3 (11757404_x_at) / RFU PLEKHG5 (11737974_s_at) / Fold change /veh PLEKHG5 (11737974_s_at) / RFU LRRC4B (11730491_at) / Fold change /veh LRRC4B (11730491_at) / RFU GIMAP4 (11747438_a_at) / Fold change /veh GIMAP4 (11747438_a_at) / RFU KRT8 (11758183_x_at) / Fold change /veh KRT8 (11758183_x_at) / RFU CNN1 (11734310_a_at) / Fold change /veh CNN1 (11734310_a_at) / RFU VPS37D (11726825_at) / Fold change /veh VPS37D (11726825_at) / RFU C10orf10 (11716522_x_at) / Fold change /veh C10orf10 (11716522_x_at) / RFU KIR2DL2 /// KIR2DL4 /// KIR2DL5A /// KIR2DL5B /// KIR2DS1 /// KIR2DS2 /// KIR2DS3 /// KIR2DS4 /// KIR3DL3 /// KIR3DL3 /// KIR3DS1 (11738374_at) / Fold change /veh KIR2DL2 /// KIR2DL4 /// KIR2DL5A /// KIR2DL5B /// KIR2DS1 /// KIR2DS2 /// KIR2DS3 /// KIR2DS4 /// KIR3DL3 /// KIR3DL3 /// KIR3DS1 (11738374_at) / RFU C1QL1 (11718748_at) / Fold change /veh C1QL1 (11718748_at) / RFU TMPRSS4 (11747572_a_at) / Fold change /veh TMPRSS4 (11747572_a_at) / RFU HAMP (11756126_x_at) / Fold change /veh HAMP (11756126_x_at) / RFU RNFT2 (11725882_a_at) / Fold change /veh RNFT2 (11725882_a_at) / RFU NR4A2 (11747474_a_at) / Fold change /veh NR4A2 (11747474_a_at) / RFU ABCC12 (11746883_a_at) / Fold change /veh ABCC12 (11746883_a_at) / RFU TMEM136 (11760407_x_at) / Fold change /veh TMEM136 (11760407_x_at) / RFU CLDN22 /// WWC2 (11732394_at) / Fold change /veh CLDN22 /// WWC2 (11732394_at) / RFU HLA-DPB1 (11760878_x_at) / Fold change /veh HLA-DPB1 (11760878_x_at) / RFU SPINT1 (11716480_a_at) / Fold change /veh SPINT1 (11716480_a_at) / RFU GAP43 (11754022_s_at) / Fold change /veh GAP43 (11754022_s_at) / RFU A4GNT (11735810_at) / Fold change /veh A4GNT (11735810_at) / RFU PRB3 (11715151_x_at) / Fold change /veh PRB3 (11715151_x_at) / RFU TUBB4B (11761932_at) / Fold change /veh TUBB4B (11761932_at) / RFU CAPN14 (11732068_a_at) / Fold change /veh CAPN14 (11732068_a_at) / RFU TMCC2 (11721928_a_at) / Fold change /veh TMCC2 (11721928_a_at) / RFU IRGQ (11745062_a_at) / Fold change /veh IRGQ (11745062_a_at) / RFU FAM174B (11720279_a_at) / Fold change /veh FAM174B (11720279_a_at) / RFU TMPRSS4 (11748680_a_at) / Fold change /veh TMPRSS4 (11748680_a_at) / RFU FAM212B (11763350_a_at) / Fold change /veh FAM212B (11763350_a_at) / RFU PLEKHG5 (11743358_a_at) / Fold change /veh PLEKHG5 (11743358_a_at) / RFU ZSCAN30 (11745921_a_at) / Fold change /veh ZSCAN30 (11745921_a_at) / RFU CMKLR1 (11741424_a_at) / Fold change /veh CMKLR1 (11741424_a_at) / RFU LOC101060620 /// MAPK8IP1 (11723275_at) / Fold change /veh LOC101060620 /// MAPK8IP1 (11723275_at) / RFU SPTSSB (11747773_x_at) / Fold change /veh SPTSSB (11747773_x_at) / RFU PRSS12 (11739890_at) / Fold change /veh PRSS12 (11739890_at) / RFU BIN1 (11741810_x_at) / Fold change /veh BIN1 (11741810_x_at) / RFU WNT11 (11732464_a_at) / Fold change /veh WNT11 (11732464_a_at) / RFU C10orf10 (11716521_a_at) / Fold change /veh C10orf10 (11716521_a_at) / RFU C5orf56 (11738089_at) / Fold change /veh C5orf56 (11738089_at) / RFU CYB561 (11721691_x_at) / Fold change /veh CYB561 (11721691_x_at) / RFU ANKRD19P (11752326_a_at) / Fold change /veh ANKRD19P (11752326_a_at) / RFU OR2T12 /// OR2T33 /// OR2T8 (11738714_s_at) / Fold change /veh OR2T12 /// OR2T33 /// OR2T8 (11738714_s_at) / RFU VCAN (11748164_a_at) / Fold change /veh VCAN (11748164_a_at) / RFU JSRP1 (11732532_at) / Fold change /veh JSRP1 (11732532_at) / RFU KRTAP10-11 (11738290_x_at) / Fold change /veh KRTAP10-11 (11738290_x_at) / RFU MYO3A (11730013_a_at) / Fold change /veh MYO3A (11730013_a_at) / RFU EBF3 (11725865_a_at) / Fold change /veh EBF3 (11725865_a_at) / RFU CAMK2N1 (11719241_x_at) / Fold change /veh CAMK2N1 (11719241_x_at) / RFU C5orf56 (11738088_a_at) / Fold change /veh C5orf56 (11738088_a_at) / RFU OLFML3 (11715873_a_at) / Fold change /veh OLFML3 (11715873_a_at) / RFU LOC100653217 /// NTM (11731650_a_at) / Fold change /veh LOC100653217 /// NTM (11731650_a_at) / RFU MAPK11 (11762145_a_at) / Fold change /veh MAPK11 (11762145_a_at) / RFU FIZ1 (11724087_x_at) / Fold change /veh FIZ1 (11724087_x_at) / RFU OASL (11726364_x_at) / Fold change /veh OASL (11726364_x_at) / RFU SOX15 (11748057_x_at) / Fold change /veh SOX15 (11748057_x_at) / RFU CD79A (11719716_a_at) / Fold change /veh CD79A (11719716_a_at) / RFU HIST1H1D (11736915_at) / Fold change /veh HIST1H1D (11736915_at) / RFU CASKIN2 (11723855_a_at) / Fold change /veh CASKIN2 (11723855_a_at) / RFU LOC730098 (11760151_x_at) / Fold change /veh LOC730098 (11760151_x_at) / RFU OR4N2 (11742367_at) / Fold change /veh OR4N2 (11742367_at) / RFU PRRT2 (11749266_a_at) / Fold change /veh PRRT2 (11749266_a_at) / RFU SNX32 (11753110_a_at) / Fold change /veh SNX32 (11753110_a_at) / RFU CDHR5 (11726645_a_at) / Fold change /veh CDHR5 (11726645_a_at) / RFU RCAN1 (11760418_a_at) / Fold change /veh RCAN1 (11760418_a_at) / RFU FAM167A (11723789_a_at) / Fold change /veh FAM167A (11723789_a_at) / RFU FAM26E (11764081_at) / Fold change /veh FAM26E (11764081_at) / RFU ISYNA1 (11749810_s_at) / Fold change /veh ISYNA1 (11749810_s_at) / RFU ACY1 (11761880_at) / Fold change /veh ACY1 (11761880_at) / RFU 11764098_at / Fold change /veh 11764098_at / RFU SAMD14 (11745864_x_at) / Fold change /veh SAMD14 (11745864_x_at) / RFU NPB (11741838_a_at) / Fold change /veh NPB (11741838_a_at) / RFU TMPRSS6 (11731388_a_at) / Fold change /veh TMPRSS6 (11731388_a_at) / RFU KRTAP10-2 (11738614_at) / Fold change /veh KRTAP10-2 (11738614_at) / RFU ARHGAP8 /// PRR5-ARHGAP8 (11727945_x_at) / Fold change /veh ARHGAP8 /// PRR5-ARHGAP8 (11727945_x_at) / RFU KRTAP5-7 /// NADSYN1 (11734609_at) / Fold change /veh KRTAP5-7 /// NADSYN1 (11734609_at) / RFU RASL12 (11751679_a_at) / Fold change /veh RASL12 (11751679_a_at) / RFU CDKN2B (11736163_a_at) / Fold change /veh CDKN2B (11736163_a_at) / RFU PRF1 (11729649_at) / Fold change /veh PRF1 (11729649_at) / RFU, ZNF638 /// ZNF638-IT1 / Fold change vs veh, ZNF638 /// ZNF638-IT1 / RFU, PANK3 / Fold change vs veh, PANK3 / RFU, SH3YL1 / Fold change vs veh, SH3YL1 / RFU, ZEB2 / Fold change vs veh, ZEB2 / RFU, NRIP1 / Fold change vs veh, NRIP1 / RFU, PTTG1IP / Fold change vs veh, PTTG1IP / RFU, CAPN2 / Fold change vs veh, CAPN2 / RFU, MED14 / Fold change vs veh, MED14 / RFU, SNORA58 / Fold change vs veh, SNORA58 / RFU, C1orf63 / Fold change vs veh, C1orf63 / RFU, LRRFIP1 / Fold change vs veh, LRRFIP1 / RFU, NDUFAF7 / Fold change vs veh, NDUFAF7 / RFU, SLC12A2 / Fold change vs veh, SLC12A2 / RFU, IBTK / Fold change vs veh, IBTK / RFU, ESF1 / Fold change vs veh, ESF1 / Fold change vs veh, TMEM50B / RFU, TAOK1 / Fold change vs veh, TAOK1 / RFU, ACBD3 / Fold change vs veh, ACBD3 / RFU, TMA16 / Fold change vs veh, TMA16 / RFU, RWDD3 / Fold change vs veh, RWDD3 / RFU, BCAT1 / Fold change vs veh, BCAT1 / RFU, EDEM3 / Fold change vs veh, EDEM3 / RFU, TMEM33 / Fold change vs veh, TMEM33 / RFU, WDR75 / Fold change vs veh, WDR75 / RFU, AHCTF1 / Fold change vs veh, AHCTF1 / RFU, TFRC / Fold change vs veh, TFRC / RFU, ZDHHC17 / Fold change vs veh, ZDHHC17 / RFU, NOM1 / Fold change vs veh, NOM1 / RFU, ARL8B / Fold change vs veh, ARL8B / RFU, ZBTB11 / Fold change vs veh, ZBTB11 / RFU, TAMM41 / Fold change vs veh, TAMM41 / RFU, KIAA1704 /// LOC100996395 / Fold change vs veh, KIAA1704 /// LOC100996395 / RFU, ING1 / Fold change vs veh, ING1 / RFU, TRMT61B / Fold change vs veh, TRMT61B / RFU, FUBP3 / Fold change vs veh, FUBP3 / RFU, TP53 / Fold change vs veh, TP53 / RFU, TNKS2 / Fold change vs veh, TNKS2 / RFU, ZFP14 / Fold change vs veh, ZFP14 / RFU, ACTR2 / Fold change vs veh, ACTR2 / RFU, PPP3R1 / Fold change vs veh, PPP3R1 / RFU, PIK3R1 / Fold change vs veh, PIK3R1 / RFU, HNRNPA1 / Fold change vs veh, HNRNPA1 / RFU, RNF170 / Fold change vs veh, RNF170 / RFU, ZNF28 / Fold change vs veh, ZNF28 / RFU, RNGTT / Fold change vs veh, RNGTT / RFU, OGT / Fold change vs veh, OGT / RFU, BRD1 / Fold change vs veh, BRD1 / RFU, MARS / Fold change vs veh, MARS / RFU, ZNF655 / Fold change vs veh, ZNF655 / RFU, FAHD1 / Fold change vs veh, FAHD1 / RFU, BDP1 / Fold change vs veh, BDP1 / RFU, LRRCC1 / Fold change vs veh, LRRCC1 / RFU, ARID1A / Fold change vs veh, ARID1A / RFU, ZNF146 / Fold change vs veh, ZNF146 / RFU, ZNF330 / Fold change vs veh, ZNF330 / RFU, GPN3 / Fold change vs veh, GPN3 / RFU, C9orf123 / Fold change vs veh, C9orf123 / RFU, N4BP2L2 / Fold change vs veh, N4BP2L2 / RFU, ARFIP1 / Fold change vs veh, ARFIP1 / RFU, FAM179B / Fold change vs veh, FAM179B / RFU, BCL10 / Fold change vs veh, BCL10 / RFU, UHRF1BP1L / Fold change vs veh, UHRF1BP1L / RFU, BET1 / Fold change vs veh, BET1 / RFU, CNOT2 / Fold change vs veh, CNOT2 / RFU, ZNF268 / Fold change vs veh, ZNF268 / Fold change vs veh, ZNF507 / RFU, DGCR2 / Fold change vs veh, DGCR2 / RFU, WDSUB1 / Fold change vs veh, WDSUB1 / Fold change vs veh, HSP90B1 /// MIR3652 / RFU, ADSS / Fold change vs veh, ADSS / RFU, GK / Fold change vs veh, GK / RFU, ZNF148 / Fold change vs veh, ZNF148 / RFU, TAF9 / Fold change vs veh, TAF9 / RFU, SLC1A5 / Fold change vs veh, SLC1A5 / RFU, SLMO2 / Fold change vs veh, SLMO2 / RFU, ABCC4 / Fold change vs veh, ABCC4 / RFU, LOC101060439 /// RAP1B / Fold change vs veh, LOC101060439 /// RAP1B / RFU, RFX7 / Fold change vs veh, RFX7 / RFU, GTPBP10 / Fold change vs veh, GTPBP10 / RFU, CNEP1R1 / Fold change vs veh, CNEP1R1 / RFU, BIVM-ERCC5 /// ERCC5 / Fold change vs veh, BIVM-ERCC5 /// ERCC5 / RFU, ILF3 / Fold change vs veh, ILF3 / RFU 11762660_at / Fold change /veh 11762660_at / RFU VCAN (11757783_s_at) / Fold change /veh VCAN (11757783_s_at) / RFU DDX43 (11728927_at) / Fold change /veh DDX43 (11728927_at) / RFU KRT8 (11758188_x_at) / Fold change /veh KRT8 (11758188_x_at) / RFU NKD1 (11759106_at) / Fold change /veh NKD1 (11759106_at) / RFU SRD5A1 (11742802_a_at) / Fold change /veh SRD5A1 (11742802_a_at) / RFU TPSAB1 /// TPSB2 (11721975_s_at) / Fold change /veh TPSAB1 /// TPSB2 (11721975_s_at) / RFU GSTM3 (11746129_a_at) / Fold change /veh GSTM3 (11746129_a_at) / RFU IL23R (11737362_x_at) / Fold change /veh IL23R (11737362_x_at) / RFU TMEM51 (11727254_a_at) / Fold change /veh TMEM51 (11727254_a_at) / RFU PIWIL2 (11732686_x_at) / Fold change /veh PIWIL2 (11732686_x_at) / RFU ORM1 (11744905_x_at) / Fold change /veh ORM1 (11744905_x_at) / RFU CCDC152 (11743942_at) / Fold change /veh CCDC152 (11743942_at) / RFU ECM1 (11717891_a_at) / Fold change /veh ECM1 (11717891_a_at) / RFU IL23R (11748794_a_at) / Fold change /veh IL23R (11748794_a_at) / RFU TNFAIP8L3 (11732012_x_at) / Fold change /veh TNFAIP8L3 (11732012_x_at) / RFU MBOAT4 (11741988_at) / Fold change /veh MBOAT4 (11741988_at) / RFU 11764193_at / Fold change /veh 11764193_at / RFU TMEM53 (11763286_at) / Fold change /veh TMEM53 (11763286_at) / RFU MAGEB2 (11727129_at) / Fold change /veh MAGEB2 (11727129_at) / RFU TMEM200A (11744735_a_at) / Fold change /veh TMEM200A (11744735_a_at) / RFU CCDC152 (11751479_a_at) / Fold change /veh CCDC152 (11751479_a_at) / RFU FAM211A (11726209_a_at) / Fold change /veh FAM211A (11726209_a_at) / RFU RGS16 (11746705_a_at) / Fold change /veh RGS16 (11746705_a_at) / RFU VCAN (11755009_s_at) / Fold change /veh VCAN (11755009_s_at) / RFU RHOB (11743442_s_at) / Fold change /veh RHOB (11743442_s_at) / RFU RGS16 (11720943_a_at) / Fold change /veh RGS16 (11720943_a_at) / RFU RGS16 (11720944_at) / Fold change /veh RGS16 (11720944_at) / RFU, VPS4B / Fold change vs veh, VPS4B / RFU, CREB1 / Fold change vs veh, CREB1 / RFU, DNAJC13 / Fold change vs veh, DNAJC13 / RFU, GNAQ / Fold change vs veh, GNAQ / RFU, CDK5R1 / Fold change vs veh, CDK5R1 / RFU, ZRANB3 / Fold change vs veh, ZRANB3 / RFU, CUL4A / Fold change vs veh, CUL4A / RFU, CCNY / Fold change vs veh, CCNY / RFU, UFL1 / Fold change vs veh, UFL1 / RFU, COG3 / Fold change vs veh, COG3 / RFU, DIAPH2 / Fold change vs veh, DIAPH2 / RFU, SKA2 / Fold change vs veh, SKA2 / RFU, AFF3 / Fold change vs veh, AFF3 / RFU, LMF1 / Fold change vs veh, LMF1 / RFU, IPO11 / Fold change vs veh, IPO11 / RFU, DFFB / Fold change vs veh, DFFB / RFU, FOXP1 / Fold change vs veh, FOXP1 / RFU, CARD8 / Fold change vs veh, CARD8 / RFU, STRN3 / Fold change vs veh, STRN3 / RFU, ADK / Fold change vs veh, ADK / RFU, RASSF2 / Fold change vs veh, RASSF2 / RFU, WIPF1 / Fold change vs veh, WIPF1 / RFU, LARP1B / Fold change vs veh, LARP1B / RFU, RASA1 / Fold change vs veh, RASA1 / RFU, RB1 / Fold change vs veh, RB1 / RFU, PPFIA1 / Fold change vs veh, PPFIA1 / RFU, MAT2A / Fold change vs veh, MAT2A / RFU, CCT5 / Fold change vs veh, CCT5 / RFU, WDR92 / Fold change vs veh, WDR92 / RFU, CUX1 / Fold change vs veh, CUX1 / RFU, TTC7A / Fold change vs veh, TTC7A / RFU, TMEM135 / Fold change vs veh, TMEM135 / RFU, DEPTOR / Fold change vs veh, DEPTOR / RFU, CPM / Fold change vs veh, CPM / RFU, DNAJB6 / Fold change vs veh, DNAJB6 / RFU, CACNA2D3 / Fold change vs veh, CACNA2D3 / RFU, DTX4 / Fold change vs veh, DTX4 / RFU, TFCP2 / Fold change vs veh, TFCP2 / RFU, GMCL1 /// GMCL1P1 / Fold change vs veh, GMCL1 /// GMCL1P1 / RFU, AEBP2 / Fold change vs veh, AEBP2 / RFU, SNHG1 /// SNORD22 /// SNORD25 /// SNORD26 /// SNORD27 /// SNORD28 /// SNORD29 /// SNORD31 / Fold change vs veh, SNHG1 /// SNORD22 /// SNORD25 /// SNORD26 /// SNORD27 /// SNORD28 /// SNORD29 /// SNORD31 / Fold change (Aza/veh), C12orf56 (ProbeSet 11735607_a_at) / Fold change (ACY-1035/veh), C12orf56 (ProbeSet 11735607_a_at) / Fold change (Aza/veh), FGFR1OP (ProbeSet 11751329_s_at) / Fold change (ACY-1035/veh), FGFR1OP (ProbeSet 11751329_s_at) / Fold change (Aza/veh), VPS36 (ProbeSet 11739960_a_at) / Fold change (ACY-1035/veh), VPS36 (ProbeSet 11739960_a_at) / RFU SYPL1 (11715823_x_at) / Fold change /veh SYPL1 (11715823_x_at) / RFU IGFBP7 (11715501_s_at) / Fold change /veh IGFBP7 (11715501_s_at) / RFU REEP3 (11722064_at) / Fold change /veh REEP3 (11722064_at) / RFU IGLL1 (11728026_x_at) / Fold change /veh IGLL1 (11728026_x_at): dose or concentration left out as unconfirmed
# Settings: ProbeSet 11749477_a_at; LIST B
structure (smiles),measurement,value
Nc1ncn([C@@H]2O[C@H](CO)[C@@H](O)[C@H]2O)c(=O)n1 [azacitidine],"Fold change vs veh, EDEM3",0.89

# From paper PMC5218480 (PLoS ONE, 2017)
